Columns and labels:
[1] = target: mTOR (Homo sapiens, UniProt P42345); experiment: mTOR inhibition; format: biochemical
Text: (§1) Highlighted are the compounds being made for antitumor testing.

[2] = tested on: NCI cell panel (60 cell lines); experiment: cytotoxicity NCI cell panel, MTT assay; details: 48 h, read-out: cytotoxicity NCI cell panel IC50
Text: as §1

[3] = tested on: C57BL6 mice; experiment: in vivo; details: for Maximum tolerated dose mg/kg ip qD × 4: MTD = >10% body weight loss, C57BL6 mice; for Ratio liver toxicity/lymphocyte toxicity: liver toxicity relative to wortmannin/decrease in blood lymphocytes relative to wortmannin
Text: as §1

[4] = in vivo; details: C57BL6, mouse, in vivo, ip
Text: as §1

C=CCN(/C=C1/C(=O)O[C@H](COC)[C@@]2(C)C1=C(O)C(=O)C1=C2[C@H](OC(C)=O)C[C@]2(C)C(=O)CC[C@@H]12)CC=C [DJM2-166, Acetic acid 4-diallylaminomethylene-6-hydroxy-1-α-methoxymethyl-10β,13β-dimethyl-3,7,17-trioxo-1,3,4,7,10,11β,12,13,14α,15,16,17-dodecahydro-2-oxa-cyclopenta[α]phenanthren-11-yl ester]
IC50 [1]: > 3000 nM
IC50 [2]: 2200 nM

COC[C@H]1OC(=O)/C(=C/N2CCCC2)C2=C(O)C(=O)C3=C([C@H](OC(C)=O)C[C@]4(C)C(=O)CC[C@@H]34)[C@]21C [DJM2-167, Acetic acid 6-hydroxy-1α-methoxymethyl-10β,13β-dimethyl-3,7,17-trioxo-4-pyrrolidin-1-yl-methylene-1,3,4,7,10,11β,12,13,14α,15,16,17-dodecahydro-2-oxa-cyclopenta[α]phenanthren-11-yl]
IC50 [1]: > 3000 nM
IC50 [2]: 500 nM

COC[C@H]1OC(=O)/C(=C/SCc2ccccc2)C2=C(O)C(=O)C3=C([C@H](OC(C)=O)C[C@]4(C)C(=O)CC[C@@H]34)[C@]21C [DJM2-170]
Maximum tolerated dose mg/kg ip qD × 4 [3]: 9 mg/kg
Ratio liver toxicity/lymphocyte toxicity [3]: 1.5

COC[C@H]1OC(=O)/C(=C/NC(C)C(=O)O)C2=C(O)C(=O)C3=C([C@H](OC(C)=O)C[C@]4(C)C(=O)CC[C@@H]34)[C@]21C (stereo partly drawn) [DJM2-177]
Maximum tolerated dose mg/kg ip qD × 4 [3]: 6 mg/kg
Ratio liver toxicity/lymphocyte toxicity [3]: 0.1

COC[C@H]1OC(=O)c2coc3c2[C@@]1(C)C1=C(C3=O)[C@@H]2CCC(=O)[C@@]2(C)C[C@H]1OC(C)=O [wortmannin, reference compound]
MTD at 4 days [4]: 2.5 mg/kg
